Results on seven compounds are retold here after article PMC10535379 (Viruses, 2023).

Each structure is given as a SMILES string. “Also recorded” adds a separate entry of the source. Counter-ions that a name gives are not always drawn. Like-named read-outs stand apart in the source and are kept apart here.

The subject of data set [1] is FMDV serotype A (NP05).
Another data set in a line: in vitro. Conditions: hamster.
Data set [2] has as its system FMDV serotype A (NP05). Nature of the data set: microbe, parasite or virus in culture. It counts as cell-based, foot-and-mouth disease virus. To be noted: for EC50: Foot-and-mouth disease virus, BHK-21, read-out: EC50 Pre-Treatment.
The subject of data set [3] is FMDV serotype A (NP05). Nature of the data set: microbe, parasite or virus in culture. It counts as cell-based, foot-and-mouth disease virus. To be noted: for EC50: Foot-and-mouth disease virus, BHK-21, read-out: EC50 Co-Treatment.
The test system of a further data set is Saccharomyces cerevisiae. To be noted: cited from earlier work.
In data set [4] the test system is FMDV serotype A (NP05). Format: cell-based, foot-and-mouth disease virus. Conditions: for Virucidal effect: 50 µM, 0 min.
Data set [5] has as its system Schizosaccharomyces pombe. Conditions: cited from earlier work.
The test system of data set [6] is FMDV serotype A (NP05). Nature of the data set: in vitro. To be noted: hamster.
The test system of data set [7] is FMDV serotype A (NP05). Kind of data set: microbe, parasite or virus in culture. To be noted: Foot-and-mouth disease virus, BHK-21, read-out: EC50 Post Entry.
For data set [8], the system named is FMDV serotype A (NP05). Format: cell-based, foot-and-mouth disease virus.
The subject of a further data set is FMDV. Conditions: cited from earlier work.
The target of the next data set is FMDV 3Cpro (Foot-and-mouth disease virus, UniProt P03306). Nature of the data set: cell-based.
In data set [9] the test system is FMDV serotype A (NP05). Format: cell-based, foot-and-mouth disease virus. The source holds these as a separate data set.
The test system of a further data set is BHK-21 cells. To be noted: hamster.
A further data set has as its system HEK-293T cells. Conditions: human.
A further data set has as its system HEP-2 cells. Conditions: human; cited from earlier work.
Another data set addresses carboxypeptidase B. To be noted: cited from earlier work.
The test system of data set [10] is human respiratory syncytial virus (RSV). Conditions: read-out: IC50 against RSV; cited from earlier work.
The mark [11] stands for this setting: HEK-293T, read-out: Inhibition of FMDV 3Cpro.

FMDV 3Cpro, sequence (P03306 1650-1862 limits assumed): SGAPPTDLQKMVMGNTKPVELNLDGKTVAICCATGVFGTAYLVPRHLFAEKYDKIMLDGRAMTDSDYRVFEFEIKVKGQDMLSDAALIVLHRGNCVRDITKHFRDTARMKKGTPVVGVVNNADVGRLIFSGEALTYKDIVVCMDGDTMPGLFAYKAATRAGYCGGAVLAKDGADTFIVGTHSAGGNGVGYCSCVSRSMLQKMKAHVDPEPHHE

In the case of `COc1cc(/C=N/Nc2nc3c([nH]2)c(=O)n(C)c(=O)n3C)ccc1O` [NSC64672, 8-[(2E)-2-[(4-hydroxy-3-methoxyphenyl)methylidene]hydrazinyl]-1,3-dimethyl-7H-purine-2,6-dione], the “EC50 Post Entry” value in the data set on FMDV serotype A (NP05) [1] is “I”. In the data set “in vitro”, this compound displayed a CC50 of 130 ± 2.3 µM. The “EC50 Pre-Treatment” value with FMDV serotype A (NP05) [2] is “I”. Moreover, in the data set with FMDV serotype A (NP05) [3], the “EC50 Co-Treatment” value is “I”.
On to `Cc1ccc([N+](=O)[O-])cc1NC(=O)c1cccc([N+](=O)[O-])c1O` [NSC79451, 2-Hydroxy-N-(2-methyl-5-nitrophenyl)-3-nitrobenzamide], for which the “Inhibition of Saccharomyces cerevisiae” value in the data set with Saccharomyces cerevisiae is “none of them could inhibit”. Also, the Virucidal effect entry in the data set on FMDV serotype A (NP05) [4] was “good inhibition at 0 min”. The CC50 in “in vitro” came to 32.79 ± 0.3 µM. In addition, in [5], the “Inhibition of Schizosaccharomyces pombe” value is “none of them could inhibit”. Further, the “EC50 Pre-Treatment” value in the data set on FMDV serotype A (NP05) [2] was “I”. Further, the EC50 in the data set with FMDV serotype A (NP05) [3] is 1.56 ± 0.03 µM.
Take `N#Cc1cc(-c2ccccc2)[nH]c1-c1nccc2ccccc12` [NSC116640, 2-isoquinolin-1-yl-5-phenyl-1H-pyrrole-3-carbonitrile]: the selectivity ratio with FMDV serotype A (NP05) [6] worked out at 73.2. Besides, the EC50 in the data set on FMDV serotype A (NP05) [7] stood at 2.88 ± 0.17 µM; in the data set on FMDV serotype A (NP05) [2], 7.27 ± 0.86 µM; in the data set with FMDV serotype A (NP05) [3], 5.74 ± 0.23 µM. The “Reduction of viral titers” value in the data set with FMDV serotype A (NP05) [4] is listed as 1.00–2.27 log TCID50/mL. In the data set with FMDV serotype A (NP05) [8], the Number of viruses result is given as “slightly increased”. Moreover, the “Virus yield (% of viral copy numbers)” value in the data set on FMDV serotype A (NP05) [8] is 0–10%. This compound also yielded a CC50 in “in vitro” of 210.7 ± 0.17 µM. Also, in the data set with FMDV, the “Potent activity in StopGo luciferase anti-FMDV screen” value was 28.18 µM. Besides, the “Concentration required for 80% inhibition of FMDV 3Cpro” value on FMDV 3Cpro is given as “more than 40 µM”. For the same compound, at FMDV 3Cpro, the midpoint of inhibition, the IC50, lay at 10.8 µM. For the same compound, in the data set with FMDV serotype A (NP05) [9], the “Viral load (viral copy number) reduction” value is reported as “reduce the viral loads in a dose-dependent manner”. In addition, the “MNTD90 (maximum non-toxic dose)” value with BHK-21 cells and in the data set on HEK-293T cells was 50 µM each time.
Regarding `O=[N+]([O-])c1ccccc1/C=C/C=N/N=C/c1ccccc1O` [NSC119805, 2-[(E)-[(E)-[(E)-3-(2-nitrophenyl)prop-2-enylidene]hydrazinylidene]methyl]phenol], the “EC50 Post Entry” value in the data set on FMDV serotype A (NP05) [1] is listed as “I”. In the data set “in vitro”, this compound gave a CC50 of 82.45 ± 0.4 µM. In the data set on FMDV serotype A (NP05) [2], the “EC50 Pre-Treatment” value is on record as “I”. Also, in the data set with FMDV serotype A (NP05) [3], the “EC50 Co-Treatment” value is “I”.
As to `CCN(CC)CCCC(C)NC(=O)c1ccc2c(c1)C(=O)c1ccccc1C2=O` (stereo not shown) [NSC331757, N-[5-(diethylamino)pentan-2-yl]-9,10-dioxoanthracene-2-carboxamide;hydrochloride], the “EC50 Post Entry” value in the data set on FMDV serotype A (NP05) [1] is given as “I”. This compound also came in with a CC50 in the data set “in vitro” of 62.8 ± 0.87 µM. Moreover, in the data set on FMDV serotype A (NP05) [2], the “EC50 Pre-Treatment” value was “I”. In the data set with FMDV serotype A (NP05) [3], the “EC50 Co-Treatment” value is given as “I”.
In the case of `Oc1ccccc1-c1nc2c3ccccc3c3ccccc3c2[nH]1` [NSC332670, 6-(1,3-Dihydrophenanthro[9,10-d]imidazol-2-ylidene)cyclohexa-2,4-dien-1-one], the selectivity ratio in the data set on FMDV serotype A (NP05) [6] amounted to 11.1. The EC50 was 5.92 ± 0.2 µM with FMDV serotype A (NP05) [7], 7.18 ± 0.98 µM in the data set with FMDV serotype A (NP05) [2] and 2.04 ± 0.02 µM in the data set on FMDV serotype A (NP05) [3]. Besides, the CC50 in the data set with HEP-2 cells was 15.3 µM; in “in vitro”, 65.82 ± 0.06 µM. The “Reduction of viral titers” value in the data set with FMDV serotype A (NP05) [4] is given as 1.17–2.27 log TCID50/mL. Besides, the figures for the IC50 (on carboxypeptidase B; against FMDV 3Cpro; in [10]) were 1550 µM, 4.21 µM and 11 µM, respectively. Also, the Inhibition effect result in the data set on FMDV serotype A (NP05) [8] is “reduced; also recorded: completely lost”. In addition, the Viral inhibition result in the data set on FMDV serotype A (NP05) [8] is listed as “great inhibition”. The inhibition at 10 µM at FMDV 3Cpro (setting [11]) is around 90%. Besides, the inhibition at 40 µM at FMDV 3Cpro (setting [11]) was found to be 100%. Moreover, the “Viral load (viral copy number) reduction” value in the data set on FMDV serotype A (NP05) [9] was “reduce the viral loads in a dose-dependent manner”. Besides, the “MNTD90 (maximum non-toxic dose)” value in the data set with BHK-21 cells and with HEK-293T cells was 50 µM throughout.
Regarding `N#CC(c1ccccc1)N(CCCCCCN(C(=O)c1ccccc1)C(C#N)c1ccccc1)C(=O)c1ccccc1` (stereo not shown) [NSC681744, N-[6-[benzoyl-[cyano(phenyl)methyl]amino]hexyl]-N-[cyano(phenyl)methyl]benzamide], in the data set on Saccharomyces cerevisiae, the “Inhibition of Saccharomyces cerevisiae” value is listed as “none of them could inhibit”. In the data set on FMDV serotype A (NP05) [4], the Virucidal effect result is “good inhibition at 0 min”. The same compound yielded a CC50 in the data set “in vitro” of 124 ± 0.5 µM. For the same compound, the “Inhibition of Schizosaccharomyces pombe” value in data set [5] is “none of them could inhibit”. The “EC50 Pre-Treatment” value with FMDV serotype A (NP05) [2] is “I”. The EC50 with FMDV serotype A (NP05) [3] worked out at 4.83 ± 0.08 µM.

The EC50 is the concentration needed to bring the measured effect to its halfway point. As usually defined, the IC50 is the concentration that gives 50% inhibition. As usually defined, the inhibition is the share of the control response that was lost under treatment.
